Laboratory results published in PubChem BioAssay (NCI).
Several values for one entry are separate records, joined by “and”; a condition that tells them apart may be missing. Identical values can stand only once.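 Each compound was tested at five concentrations against cells in 96-well plates for 48 hours. The concentration for full growth arrest is given as TGI.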

Legend:
Assay in all cases: growth of human tumour cells (NCI), 48 h
SNB-19 CNS = test system: SNB-19 CNS
ACHN renal = test system: ACHN renal
SK-OV-3 ovarian = test system: SK-OV-3 ovarian
MCF7 breast = test system: MCF7 breast
HOP-92 NSCLC = test system: HOP-92 NSCLC
HT29 colon = test system: HT29 colon
TK-10 renal = test system: TK-10 renal
UACC-62 melanoma = test system: UACC-62 melanoma
OVCAR-8 ovarian = test system: OVCAR-8 ovarian
NCI-H23 lung = test system: NCI-H23 lung
HOP-62 NSCLC = test system: HOP-62 NSCLC
SF-268 CNS = test system: SF-268 CNS
K-562 leukemia = test system: K-562 leukemia
SF-539 CNS = test system: SF-539 CNS
RXF 393 renal = test system: RXF 393 renal
HS 578T breast = test system: HS 578T breast

Measured: TGI

C[C@@H](NC(=O)OC1C=CC2(CC1)C(=O)N(C)c1ccccc12)c1cccc2ccccc12 (some centres not stated)
not listed: SF-539 CNS | RXF 393 renal | HS 578T breast
> 25 µM: all other assays above

CN(C)CC(CO)(CN(C)C)CN(C)C
not listed: HS 578T breast
> 100 µM: all other assays above

COc1cc(C(C)c2cc3c(cc2OCCCCOc2cc4c(cc2C(C)c2cc(OC)c(OC)c(OC)c2)OCO4)OCO3)cc(OC)c1OC (configuration not stated)
55.4 µM: SF-539 CNS
73.3 µM: RXF 393 renal
91.8 µM: SK-OV-3 ovarian
not listed: MCF7 breast | HOP-92 NSCLC | HS 578T breast
> 100 µM: all other assays above

COc1ccc([N-]/C(=N\n2c(=O)c(C)nn(C)c2=S)N(c2ccc(OC)cc2)c2nn3c(=O)c(C)n[n+](C)c3s2)cc1
not listed: SK-OV-3 ovarian | MCF7 breast | TK-10 renal | HS 578T breast
> 100 µM: all other assays above

C=C(C)[C@@]1(O)CCC[C@H]1NC(=O)OC(C)(C)C
not listed: UACC-62 melanoma | K-562 leukemia | SF-539 CNS | HS 578T breast
> 100 µM: all other assays above

CC(C)[Si](OC1=C(C(=O)N(C)c2ccccc2Cl)CCC1)(C(C)C)C(C)C
39.5 µM: SF-539 CNS
30 µM: SNB-19 CNS
32.7 µM: HOP-92 NSCLC
32.8 µM: SK-OV-3 ovarian
29 µM: HT29 colon
39.1 µM: TK-10 renal
31 µM: OVCAR-8 ovarian
33.4 µM: SF-268 CNS
35.4 µM: RXF 393 renal
36.3 µM: ACHN renal
32.3 µM: HOP-62 NSCLC
29.8 µM: NCI-H23 lung

C=C1CC(Cn2cc(C)c(=O)[nH]c2=O)(c2ccc(-c3ccccc3)cc2)OC1=O (configuration not stated)
5.62 µM: SF-268 CNS
2.3 µM: K-562 leukemia
2.76 µM: TK-10 renal
3.77 µM: UACC-62 melanoma
29.4 µM: HOP-62 NSCLC
27.4 µM: SNB-19 CNS
2.42 µM: HT29 colon
17.7 µM: SK-OV-3 ovarian
5.87 µM: MCF7 breast
4.98 µM: OVCAR-8 ovarian
6.65 µM: ACHN renal
3.75 µM: HOP-92 NSCLC
8.38 µM: SF-539 CNS
> 21.2 µM: HS 578T breast
3.99 µM: NCI-H23 lung

COc1ccc(C(C2C(=O)N(C)C(=O)N(C)C2=O)C(F)(F)C(=O)N(C)C)cc1 (configuration not stated)
not listed: HT29 colon | K-562 leukemia | HS 578T breast
> 100 µM: all other assays above

CC(C)OP(=O)(OC(C)C)/C(=N/N)NNc1ccc([N+](=O)[O-])cc1
not listed: SK-OV-3 ovarian | MCF7 breast | HT29 colon | RXF 393 renal | HS 578T breast
> 100 µM: all other assays above

O=c1c2ccccc2nc(-c2ccccc2)n1NC(=S)Nc1ccc(Cl)cc1[N+](=O)[O-]
not listed: SNB-19 CNS | MCF7 breast | HS 578T breast
> 100 µM: all other assays above

COC(=O)/C=C1/N=C(N(C)/N=C/c2ccccc2)NC1=O
not listed: ACHN renal | HOP-92 NSCLC
> 100 µM: all other assays above

CC(=O)O[C@H]1CC[C@@]2(C)C(=CC[C@@H]3[C@@H]2CC[C@]2(C)C(=N/O)/C(=C/c4ccc([N+](=O)[O-])cc4)C[C@@H]32)C1
8.46 µM: HS 578T breast
62 µM: HOP-92 NSCLC
37.1 µM: SNB-19 CNS
13.2 µM: NCI-H23 lung
20.5 µM: UACC-62 melanoma
55.3 µM: TK-10 renal
not listed: MCF7 breast | OVCAR-8 ovarian
> 100 µM: all other assays above

COC(=O)C1C2C=CC(C2)N1S(=O)(=O)c1ccccc1 (configuration not stated)
not listed: HS 578T breast
> 100 µM: all other assays above

CCN1CC2=C(NC(=S)NC2c2cc(OC)c(OC)c(OC)c2)/C(=C/c2cc(OC)c(OC)c(OC)c2)C1 (configuration not stated)
37.7 µM: SF-268 CNS
66.3 µM: K-562 leukemia
60.4 µM: HOP-92 NSCLC
61.6 µM: OVCAR-8 ovarian
not listed: SF-539 CNS | HS 578T breast
> 100 µM: all other assays above

O=C(N/N=C1/C(=O)c2c3ccccc3cc3cccc1c23)c1cccc(Cl)c1
67.2 µM: HS 578T breast
not listed: MCF7 breast | TK-10 renal | SF-268 CNS
> 100 µM: all other assays above

COc1ccc(-n2c(C)nc3ccc(NC4OCC(O)C(O)C4O)cc3c2=O)cc1 (configuration not stated)
68.5 µM and 80.2 µM: HT29 colon
94.6 µM and 82.3 µM: OVCAR-8 ovarian
81.9 µM and 87.8 µM: RXF 393 renal
87.2 µM and 95.1 µM: K-562 leukemia
not listed: SK-OV-3 ovarian | HOP-92 NSCLC | SF-539 CNS
> 100 µM: all other assays above
